Experimental data reported in article PMC10363532, “Xanthone synthetic derivatives with high anticandidal activity and positive mycostatic selectivity index values” (Scientific Reports, 2023).

Target: T1, yeast topoisomerase II (yTOPO II) (Saccharomyces cerevisiae, UniProt P06786)
T1 construct: gene TOP2; purified enzyme from the Inspiralis yeast topoisomerase II relaxation assay kit
T1 sequence (P06786 1-1428): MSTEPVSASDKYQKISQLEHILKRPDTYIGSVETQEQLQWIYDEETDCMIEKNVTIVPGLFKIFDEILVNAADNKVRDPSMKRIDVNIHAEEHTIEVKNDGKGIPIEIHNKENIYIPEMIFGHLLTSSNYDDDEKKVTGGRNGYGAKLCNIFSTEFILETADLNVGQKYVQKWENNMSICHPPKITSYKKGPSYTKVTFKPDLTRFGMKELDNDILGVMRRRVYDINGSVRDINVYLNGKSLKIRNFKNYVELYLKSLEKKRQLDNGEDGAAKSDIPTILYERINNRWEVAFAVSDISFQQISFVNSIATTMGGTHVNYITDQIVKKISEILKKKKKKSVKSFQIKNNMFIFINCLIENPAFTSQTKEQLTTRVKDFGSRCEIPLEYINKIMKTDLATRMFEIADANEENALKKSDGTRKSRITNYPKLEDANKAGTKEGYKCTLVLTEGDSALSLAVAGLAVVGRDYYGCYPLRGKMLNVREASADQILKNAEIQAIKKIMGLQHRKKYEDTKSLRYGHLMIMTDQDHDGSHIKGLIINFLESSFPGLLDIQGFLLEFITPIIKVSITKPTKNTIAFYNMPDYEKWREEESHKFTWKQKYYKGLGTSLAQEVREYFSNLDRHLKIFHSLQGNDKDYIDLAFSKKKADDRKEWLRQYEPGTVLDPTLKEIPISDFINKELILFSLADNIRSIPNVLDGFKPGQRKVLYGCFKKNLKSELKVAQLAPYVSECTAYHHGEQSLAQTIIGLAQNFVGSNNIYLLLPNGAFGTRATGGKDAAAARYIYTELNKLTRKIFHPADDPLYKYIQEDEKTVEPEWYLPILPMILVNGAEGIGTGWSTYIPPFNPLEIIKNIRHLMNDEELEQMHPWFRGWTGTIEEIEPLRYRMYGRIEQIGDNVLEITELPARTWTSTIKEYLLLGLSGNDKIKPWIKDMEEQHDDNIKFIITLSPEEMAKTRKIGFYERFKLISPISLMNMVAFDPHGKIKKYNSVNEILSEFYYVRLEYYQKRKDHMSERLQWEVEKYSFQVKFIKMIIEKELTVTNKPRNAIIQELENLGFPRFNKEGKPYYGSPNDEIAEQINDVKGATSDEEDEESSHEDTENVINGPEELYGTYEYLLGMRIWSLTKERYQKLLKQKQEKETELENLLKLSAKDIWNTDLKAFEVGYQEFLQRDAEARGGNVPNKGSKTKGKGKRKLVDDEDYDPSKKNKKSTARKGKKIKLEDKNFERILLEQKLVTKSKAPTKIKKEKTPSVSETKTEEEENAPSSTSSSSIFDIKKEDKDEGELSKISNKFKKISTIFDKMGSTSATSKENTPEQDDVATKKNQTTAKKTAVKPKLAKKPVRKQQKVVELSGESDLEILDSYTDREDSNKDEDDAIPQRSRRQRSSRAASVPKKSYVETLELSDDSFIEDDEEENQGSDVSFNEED
Experiment: plasmid DNA relaxation assay, gel densitometry
Type: biochemical
Settings: for Complete inhibition: supercoiled pBR322 as DNA substrate
Excerpt: plasmid DNA relaxation assay, gel densitometry on yeast topoisomerase II (yTOPO II)

## CCN(CC)CCn1nc2c3c(c([N+](=O)[O-])ccc31)Oc1cc3ccccc3cc1-2 [compound 13, 13]
  Complete inhibition: > 150 µM

## O=c1c2cc3ccccc3cc2oc2c([N+](=O)[O-])ccc(NCCN3CCCC3)c12 [compound 9, 9]
Highest concentration limited by solubility
  Complete inhibition: > 50 µM

## CN1CCN(CCCNc2ccc([N+](=O)[O-])c3oc4cc5ccccc5cc4c(=O)c23)CC1 [compound 42, 1-((3-(4-methylpiperazin-1-yl)propyl)amino)-4-nitro-12H-benzo[b]xanthen-12-one]
  IC50: 5.86 ± 1.07 µM

## O=c1c2cc3ccccc3cc2oc2c([N+](=O)[O-])ccc(NCCN3CCOCC3)c12 [compound 44, 1-((2-morpholinoethyl)amino)-4-nitro-12H-benzo[b]xanthen-12-one]
  IC50: 5.36 ± 1.22 µM
